Measured values as given in the supplement of paper PMC4862054.

Test system: DU-4475
Assay: normalised response (% of control), CellTox Green; higher = less cell death (100 = DMSO, 0 = benzethonium chloride kill control)
Conditions: incubation time: 72 h
Outline: (§1)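 Breast cancer cell lines were exposed for 72 h in 384-well plates to compound at 5 concentrations, 10-fold apart, covering a 10,000-fold range fixed for each compound. Plates were read for CellTox Green fluorescence and CellTiter-Glo luminescence and normalised to 0.1 % DMSO (100) and a positive kill control (0). Each value is the normalised signal at one concentration of the series.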

Row | SMILES | normalised response [%]
1 | CC(C)n1cnc2c(NCCc3ccc(O)cc3)nc(-c3csc4ccccc34)nc21 [StemRegenin 1] (10000 nM) | 98.1

Test system: HCC1143
Assay: as above
Conditions: incubation time: 72 h
Outline: as §1

Row | SMILES | normalised response [%]
2 | CC1(COc2ccc3c(c2)ncn3-c2ccc3cccc(N4CCC(N)CC4)c3n2)COC1 [Crenolanib] (10000 nM) | 55.7
3 | CC[C@H](CO)Nc1nc(NCc2ccccc2)c2ncn(C(C)C)c2n1 [Seliciclib] (10000 nM) | 84.5
4 | O=[N+]([O-])c1ccc2c(c1)S(=O)(=O)C=C2 [Stattic] (50000 nM) | -42.8
5 | CC(C)n1cnc2c(NCCc3ccc(O)cc3)nc(-c3csc4ccccc34)nc21 [StemRegenin 1] (10000 nM) | 70.8

Test system: CAL-85-1
Assay: as above
Conditions: incubation time: 72 h
Outline: as §1

Row | SMILES | normalised response [%]
6 | CC1(COc2ccc3c(c2)ncn3-c2ccc3cccc(N4CCC(N)CC4)c3n2)COC1 [Crenolanib] (10000 nM) | -25.9
7 | CC[C@H](CO)Nc1nc(NCc2ccccc2)c2ncn(C(C)C)c2n1 [Seliciclib] (10000 nM) | 62.7
8 | O=[N+]([O-])c1ccc2c(c1)S(=O)(=O)C=C2 [Stattic] (50000 nM) | -51.7
9 | CC(C)n1cnc2c(NCCc3ccc(O)cc3)nc(-c3csc4ccccc34)nc21 [StemRegenin 1] (10000 nM) | 78.5

Test system: BT-549
Assay: as above
Conditions: incubation time: 72 h
Outline: as §1

Row | SMILES | normalised response [%]
10 | CC1(COc2ccc3c(c2)ncn3-c2ccc3cccc(N4CCC(N)CC4)c3n2)COC1 [Crenolanib] (10000 nM) | 28.9
11 | CC[C@H](CO)Nc1nc(NCc2ccccc2)c2ncn(C(C)C)c2n1 [Seliciclib] (10000 nM) | 91.5
12 | O=[N+]([O-])c1ccc2c(c1)S(=O)(=O)C=C2 [Stattic] (50000 nM) | -34.2
13 | CC(C)n1cnc2c(NCCc3ccc(O)cc3)nc(-c3csc4ccccc34)nc21 [StemRegenin 1] (10000 nM) | 94.6

Test system: BT-474
Assay: as above
Conditions: incubation time: 72 h
Outline: as §1

Row | SMILES | normalised response [%]
14 | CC1(COc2ccc3c(c2)ncn3-c2ccc3cccc(N4CCC(N)CC4)c3n2)COC1 [Crenolanib] (10000 nM) | 17.5
15 | CC[C@H](CO)Nc1nc(NCc2ccccc2)c2ncn(C(C)C)c2n1 [Seliciclib] (10000 nM) | 100
16 | O=[N+]([O-])c1ccc2c(c1)S(=O)(=O)C=C2 [Stattic] (50000 nM) | 8.89
17 | CC(C)n1cnc2c(NCCc3ccc(O)cc3)nc(-c3csc4ccccc34)nc21 [StemRegenin 1] (10000 nM) | 85.5

Test system: CAL-51
Assay: as above
Conditions: incubation time: 72 h
Outline: as §1

Row | SMILES | normalised response [%]
18 | CC1(COc2ccc3c(c2)ncn3-c2ccc3cccc(N4CCC(N)CC4)c3n2)COC1 [Crenolanib] (10000 nM) | 30.6
19 | CC[C@H](CO)Nc1nc(NCc2ccccc2)c2ncn(C(C)C)c2n1 [Seliciclib] (10000 nM) | 99.4
20 | O=[N+]([O-])c1ccc2c(c1)S(=O)(=O)C=C2 [Stattic] (50000 nM) | 34.1
21 | CC(C)n1cnc2c(NCCc3ccc(O)cc3)nc(-c3csc4ccccc34)nc21 [StemRegenin 1] (10000 nM) | 122

Test system: MFM-223
Assay: as above
Conditions: incubation time: 72 h
Outline: as §1

Row | SMILES | normalised response [%]
22 | CC1(COc2ccc3c(c2)ncn3-c2ccc3cccc(N4CCC(N)CC4)c3n2)COC1 [Crenolanib] (10000 nM) | 93.4
23 | CC[C@H](CO)Nc1nc(NCc2ccccc2)c2ncn(C(C)C)c2n1 [Seliciclib] (10000 nM) | 68.6
24 | O=[N+]([O-])c1ccc2c(c1)S(=O)(=O)C=C2 [Stattic] (50000 nM) | 30.1
25 | CC(C)n1cnc2c(NCCc3ccc(O)cc3)nc(-c3csc4ccccc34)nc21 [StemRegenin 1] (10000 nM) | 28.5

Test system: HCC1937
Assay: as above
Conditions: incubation time: 72 h
Outline: as §1

Row | SMILES | normalised response [%]
26 | CC1(COc2ccc3c(c2)ncn3-c2ccc3cccc(N4CCC(N)CC4)c3n2)COC1 [Crenolanib] (10000 nM) | 87.1
27 | CC[C@H](CO)Nc1nc(NCc2ccccc2)c2ncn(C(C)C)c2n1 [Seliciclib] (10000 nM) | 105
28 | O=[N+]([O-])c1ccc2c(c1)S(=O)(=O)C=C2 [Stattic] (50000 nM) | -18.2
29 | CC(C)n1cnc2c(NCCc3ccc(O)cc3)nc(-c3csc4ccccc34)nc21 [StemRegenin 1] (10000 nM) | 91.1

Test system: HCC1599
Assay: as above
Conditions: incubation time: 72 h
Outline: as §1

Row | SMILES | normalised response [%]
30 | CC1(COc2ccc3c(c2)ncn3-c2ccc3cccc(N4CCC(N)CC4)c3n2)COC1 [Crenolanib] (10000 nM) | 81.5
31 | CC[C@H](CO)Nc1nc(NCc2ccccc2)c2ncn(C(C)C)c2n1 [Seliciclib] (10000 nM) | 110
32 | O=[N+]([O-])c1ccc2c(c1)S(=O)(=O)C=C2 [Stattic] (50000 nM) | 65
33 | CC(C)n1cnc2c(NCCc3ccc(O)cc3)nc(-c3csc4ccccc34)nc21 [StemRegenin 1] (10000 nM) | 102

Test system: MDA-MB-453
Assay: as above
Conditions: incubation time: 72 h
Outline: as §1

Row | SMILES | normalised response [%]
34 | CC1(COc2ccc3c(c2)ncn3-c2ccc3cccc(N4CCC(N)CC4)c3n2)COC1 [Crenolanib] (10000 nM) | 78.5
35 | CC[C@H](CO)Nc1nc(NCc2ccccc2)c2ncn(C(C)C)c2n1 [Seliciclib] (10000 nM) | 108
36 | O=[N+]([O-])c1ccc2c(c1)S(=O)(=O)C=C2 [Stattic] (50000 nM) | 17.2
37 | CC(C)n1cnc2c(NCCc3ccc(O)cc3)nc(-c3csc4ccccc34)nc21 [StemRegenin 1] (10000 nM) | 87.5

Test system: MCF-10A
Assay: as above
Conditions: incubation time: 72 h
Outline: as §1

Row | SMILES | normalised response [%]
38 | CC1(COc2ccc3c(c2)ncn3-c2ccc3cccc(N4CCC(N)CC4)c3n2)COC1 [Crenolanib] (10000 nM) | -4.14
39 | CC[C@H](CO)Nc1nc(NCc2ccccc2)c2ncn(C(C)C)c2n1 [Seliciclib] (10000 nM) | 108
40 | O=[N+]([O-])c1ccc2c(c1)S(=O)(=O)C=C2 [Stattic] (50000 nM) | -24.7
41 | CC(C)n1cnc2c(NCCc3ccc(O)cc3)nc(-c3csc4ccccc34)nc21 [StemRegenin 1] (10000 nM) | 118

Test system: MDA-MB-468
Assay: as above
Conditions: incubation time: 72 h
Outline: as §1

Row | SMILES | normalised response [%]
42 | CC1(COc2ccc3c(c2)ncn3-c2ccc3cccc(N4CCC(N)CC4)c3n2)COC1 [Crenolanib] (10000 nM) | 131
43 | CC[C@H](CO)Nc1nc(NCc2ccccc2)c2ncn(C(C)C)c2n1 [Seliciclib] (10000 nM) | 154
44 | O=[N+]([O-])c1ccc2c(c1)S(=O)(=O)C=C2 [Stattic] (50000 nM) | -81.1
45 | CC(C)n1cnc2c(NCCc3ccc(O)cc3)nc(-c3csc4ccccc34)nc21 [StemRegenin 1] (10000 nM) | 130

Test system: CAL-120
Assay: as above
Conditions: incubation time: 72 h
Outline: as §1

Row | SMILES | normalised response [%]
46 | CC1(COc2ccc3c(c2)ncn3-c2ccc3cccc(N4CCC(N)CC4)c3n2)COC1 [Crenolanib] (10000 nM) | 74.8
